Tests used:
LPS-treated mice [1] = assay: Tail suspension test (TST) in LPS-induced inflammatory model of depression; conditions: for immobility time in TST: TST 3 h after
normal mice [2] = assay: Hyperlocomotion test (side effects); conditions: for time after administration at which enhanced amount of locomotion returned to a normal value: ketamine 10 mg/kg, norketamine 20 mg/kg, (S)-ketamine 10 mg/kg
LPS-treated mice [3] = assay: Forced swimming test (FST) in LPS-induced inflammatory model of depression; conditions: for immobility time in FST: FST 5 h after
normal mice [4] = assay: Prepulse inhibition test (side effects)
[5] = tested on: social defeat stress mice; assay: Golgi staining, spine density in brain regions of social defeat stress mice; type: in vivo; conditions: 10 mg/kg intraperitoneally, eight days after administration
[6] = tested on: social defeat stress mice; assay: 1% sucrose preference test (SPT) in social defeat stress model of depression; conditions: 10 mg/kg intraperitoneally, seven days after administration
[7] = tested on: social defeat stress mice; assay: Tail suspension test (TST) in social defeat stress model of depression; type: in vivo; conditions: 10 mg/kg intraperitoneally; for immobility time in TST: single administration
Method: (§1) The TST was performed as follows. […] The FST was performed as follows. […] The LMT was performed as follows. […] The SPT was performed as follows.

[8] = tested on: social defeat stress mice; assay: Forced swimming test (FST) in social defeat stress model of depression; type: in vivo; conditions: 10 mg/kg intraperitoneally; for immobility time in FST: single administration
Method: as §1

normal mice [9] = assay: Conditioned place preference test (CPP) (side effects); conditions: 20 mg/kg; vs saline
[10] = Plasma concentration of (S)-norketamine after peroral administration of (S)-norketamine derivative; type: in vivo; conditions: mice; 30 mg/kg perorally; 15 min to 8 h
Method: The pharmacokinetic profile of an (S)-norketamine derivative was investigated through measurement of the blood concentration of (S)-norketamine after administration thereof.
The obtained blood plasma was placed into a polypropylene microtube and stored in a freezer at −80° C.
The plasma concentration of (S)-norketamine was measured by the method described below.
STD (standard) solution (10 μL) was added to mouse plasma (20 μL) as a calibration curve sample. A mixture of acetonitrile/water (1:1, v/v) was added to a sample, a blank sample, and a QC (quality control) sample.
Agitation was performed for 10 seconds, and I.S. (internal standard) solution (Norketamine-D4: 10 ng/mL) (100 μL) was added. A mixture of acetonitrile and methanol (=9:1) was added to the blank sample.
Agitation was performed for 30 seconds, followed by centrifugation at room temperature and 16,000×g for three minutes. The supernatant (80 μL) was transferred to a new microtube, and 0.001 mol/L ammonium hydrogen carbonate (100 μL) was added to the microtube.
Agitation was performed for 10 seconds, followed by centrifugation at room temperature and 16,000×g for two minutes.
The (S)-norketamine concentration was measured through HPLC.
The measurement conditions are as follows.

NMDA receptor = conditions: Non-Patent Document 12; cited from earlier work
[11] = 10 mg/kg intraperitoneally, vs LPS-treated mice administered saline
[12] = 10 mg/kg each, intraperitoneally
[13] = 5, 10, or 20 mg/kg intraperitoneally 23 h after LPS

With `CNC1(c2ccccc2Cl)CCCCC1=O` (racemic) [ketamine] the “immobility time in TST” value (LPS-treated mice [1]; [11]) was “significantly reduced immobility time”, the “amount of locomotion (hyperlocomotion effect)” value (normal mice [2]; 10 mg/kg, 10 minutes after administration, vs normal mice administered saline) was “significant increase in amount of locomotion” and the “time after administration at which enhanced amount of locomotion returned to a normal value” (“time after administration” for short) (normal mice [2]) was 20 min. For the same molecule, the “immobility time in FST” value (LPS-treated mice [3]; [11]) was “significantly reduced immobility time” and the prepulse inhibition deficit (normal mice [4]; 10 mg/kg, prepulse stimulation at 77 dB or 81 dB) was “induced prepulse inhibition deficit”.
With `N[C@@]1(c2ccccc2Cl)CCCCC1=O` [(R)-norketamine] the “spine density in frontal cortex (prelimbic region), hippocampus CA3 region and hippocampal dentate gyrus” value [5] was “did not exhibit the effect of increasing the spine density”, the “spine density in nucleus accumbens (core region and shell region)” value [5] was “not affected” and the “sucrose consumption preference in SPT” value [6] was “did not restore it”. For the same molecule, the “immobility time in TST” value [7] was “did not exhibit an antidepressant effect” and the “immobility time in FST” value [8] was “did not exhibit an antidepressant effect”.
For `CN[C@]1(c2ccccc2Cl)CCCCC1=O` [(S)-ketamine], the “amount of locomotion (hyperlocomotion effect)” value (normal mice [2]; 10 mg/kg, 10 minutes and 20 minutes after administration, vs normal mice administered saline) was “significant increase in amount of locomotion”, the “time after administration” value (normal mice [2]) was 30 min and the “CPP score (conditioned place preference, drug dependence)” value (normal mice [9]) was “significantly increase the CPP score”. For the same molecule, the prepulse inhibition deficit (normal mice [4]; 10 mg/kg) was “induced prepulse inhibition deficit”.
In the case of `N[C@]1(c2ccccc2Cl)CCCCC1=O` [(S)-norketamine], the “spine density in frontal cortex (prelimbic region), hippocampus CA3 region and hippocampal dentate gyrus” value [5] is reported as “significantly increased the spine density”, the “spine density in nucleus accumbens (core region and shell region)” value [5] is reported as “not affected” and the “sucrose consumption preference in SPT” value [6] is reported as “significantly restored the sucrose consumption preference”. For the same molecule, the “antidepressant effect in TST compared with (R)-norketamine” value [7] was “significantly higher antidepressant effect than (R)-norketamine”, the “immobility time in TST” value [7] was “significantly reduced immobility time” and the “antidepressant effect in FST compared with (R)-norketamine” value [8] was “significantly higher antidepressant effect than (R)-norketamine”. For the same molecule, the “immobility time in FST” value [8] was “significantly reduced immobility time”, the “amount of locomotion (hyperlocomotion effect)” value (normal mice [2]; 5, 10, or 20 mg/kg) was “did not affect the amount of locomotion” and the “CPP score (conditioned place preference, drug dependence)” value (normal mice [9]) was “did not increase the CPP score”. For the same molecule, the prepulse inhibition deficit (normal mice [4]; 5, 10, or 20 mg/kg) was “did not induce prepulse inhibition deficit”.
With `Cc1oc(=O)oc1COC(=O)N[C@]1(c2ccccc2Cl)CCCCC1=O` [Compound 1, (5-methyl-2-oxo-1,3-dioxol-4-yl)methyl-(S)-(1-(2-chlorophenyl)-2-oxocyclohexyl) carbamate] the “decrease of blood concentration compared with (S)-norketamine derivative (2)” value [10] was “decreased more slowly”.
In the case of `NC1(c2ccccc2Cl)CCCCC1=O` (centres unmarked) [norketamine], the “affinity for an NMDA receptor, factor lower than ketamine” value (NMDA receptor) is given as “about 6.8 fold”, the “antidepressant effect in TST compared with ketamine” value (LPS-treated mice [1]; [12]) is given as “significantly stronger compared to ketamine” and the “immobility time in TST” value (LPS-treated mice [1]; [11]) is given as “significantly reduced immobility time”. The “immobility time in TST” value (LPS-treated mice [1]; [13]) was “dose-dependently reduced immobility time”, the “amount of locomotion (hyperlocomotion effect)” value (normal mice [2]; 5 mg/kg or 10 mg/kg) was “did not affect the amount of locomotion” and the “amount of locomotion compared with ketamine (10 mg/kg)” value (normal mice [2]; 20 mg/kg, 10 minutes after administration) was “significantly lower than that in the mice administered ketamine (10 mg/kg)”. For the same molecule, the “amount of locomotion (hyperlocomotion effect)” value (normal mice [2]; 20 mg/kg, 10 minutes after administration, vs normal mice administered saline) was “significant increase in amount of locomotion”, the “time after administration” value (normal mice [2]) was 20 min and the “antidepressant effect in FST compared with ketamine” value (LPS-treated mice [3]; [12]) was “significantly stronger compared to ketamine”. The “immobility time in FST” value (LPS-treated mice [3]; [11]) was “significantly reduced immobility time”, the “immobility time in FST” value (LPS-treated mice [3]; [13]) was “dose-dependently reduced immobility time” and the prepulse inhibition deficit (normal mice [4]; 5 mg/kg or 10 mg/kg) was “did not induce prepulse inhibition deficit”. For the same molecule, the prepulse inhibition deficit (normal mice [4]; 20 mg/kg, prepulse stimulation at 81 dB) was “significantly induced prepulse inhibition deficit”.

— patent publication US20190240184A1, “PHARMACEUTICAL APPLICATIONS FOR (S)-N[…] SALTS THEREOF” (NATIONAL UNIVERSITY CORPORATION CHIBA UNIVERSITY, priority 2016, published 2019)
